Measurements reported in patent publication US20080096251A1, “Invertebrate-Derived Gonadotropic Hormone and its Synthesis” (priority 2004, published 2008).

Legend:
[1] = test system: ovary of Asterias amurensis; assay: gonad-stimulating activity: spawning of matured eggs from ovary fragments in a two-fold dilution series; assay type: cell-based; conditions: Asterias amurensis ovary piece in seawater, 25° C., spawning after 1 hr
Experimental: (§1) Gonad-stimulating activity could be measured by the following methods:
(§2) Those individuals, whose eggs are highly sensitive to oocyte maturation-inducing hormone, are selected from matured invertebrate female individuals and are separated as test individuals.
(§3) Ovaries are excised from test individuals into seawater and are cut in small pieces. The assay plate for multiple test samples is filled with 200 μl seawater. Two μl of a test sample for gonad-stimulating activity is diluted to 200 folds by mixing with 398 μl seawater. The half portion (200 μl) is diluted to two fold by mixing with 200 μl seawater in the assay plate. The half portion (200 μl) is further diluted to two fold by mixing with 200 μl seawater in the assay plate. Repeating of the procedure results in preparation of two fold dilution series from 200-folds dilution to 102,400-folds dilution. A small piece of ovary is added to each dilution sample and is allowed to rest at 25° C. The gonad-stimulating activity is evaluated by spawning of matured eggs from a contracted small piece of ovary after 1 hr. The relative gonad-stimulating activity is assessed by the degree of dilution.
(§4) In the following Examples, gonad-stimulating activity are examined by the following way:
(§5) Two to three individuals bearing oocyte with high sensitivity of a gonadotropic hormone (1-methyladenine) are selected from several tens of female individuals of matured Asterina pectinifera (or Asterias amurensis) and are separated as test individuals.
(§6) The selection was performed in the following way:
(§7) The oocyte maturation-inducing hormone was diluted to 6 different concentrations, i.e. 10^−6 M, 3×10^−7 M, 10^−7 M, 3×10^−8 M, 10^−8 M, and 3×10^−9 M, in seawater, wherein small fragment of ovary was added to the different concentrations of maturation-inducing hormone and was allowed to stand for 60 min at room temperature. Maturation of oocyte was examined under microscope after 60 min to see whether the structure of nuclei in an oocyte was degraded to prepare for next fertilization. The concentration of the oocyte maturation-inducing hormone at maturation was checked and those individuals, which were matured at less than 10^−7 M, were used as test individuals.
as §3, with “(with tufted morphology) were removed” for “are excised”, “were” for “are”, “into about 5 mm fragments.” for “in small pieces.”, “hr (FIG. 1).” for “hr.”

[2] = test system: ovary of Asterina pectinifera; assay: as above; assay type: cell-based; conditions: for EC50(nM) gonad-stimulating activity, Asterina pectinifera: Asterina pectinifera ovary piece in seawater, 25° C., spawning after 1 hr; for gonad-stimulating activity (in words): summary of Table 1, Asterina pectinifera
Experimental: as §1, §2, §3, §4, §5, §6, §7
as §3, with “(with tufted morphology) were removed” for “are excised”, “were” for “are”, “into about 5 mm fragments.” for “in small pieces.”, “hr (FIG. 1).” for “hr.”

Row | Sequence | EC50(nM) gonad-stimulating activity, Asterias amurensis [1] | EC50(nM) gonad-stimulating activity, Asterina pectinifera [2] | gonad-stimulating activity (in words) [2]
1 | EKYCDDDFHMAVFRTCAVS [GSS-A, synthesized subunit peptide, 19 amino acid residues, molecular weight 2236] | No activity | No activity | did not show gonad-stimulating activity
2 | SEYSGIASYCCLHGCTPSELSVVC [GSS-B] | No activity | No activity | did not show gonad-stimulating activity
